# Measured values as given in US8242084B2, “Dimerized peptide” (Chugai Seiyaku Kabushiki Kaisha, priority 2003, dated 2012).
# Bridge positions count the residues as written; N and C are the ends. I, II: the chains in the order shown.
# Tested on: EL4-A2402/K^b cells
# Experiment: Induction of CTLs with peptide dimer: HLA-A24 transgenic mice immunised, splenocytes tested by 51Cr release assay
# Assay type: in vivo, HLA-A24 transgenic mouse
# Details: for CTL-inducing activity (induction of peptide-specific CTLs): HLA-A24 transgenic mouse, s.c. injection in the base of the tail, FIG. 1
# Protocol: The CTL-inducing activity of the peptide dimer prepared in Example 1 was evaluated using HLA-A24 transgenic mice (Int. J. Cancer: 100, 565, 2002). The peptide dimer was dissolved in dimethyl sulfoxide (DMSO) to obtain a 40 mg/ml peptide solution. The peptide solution (35 μl) was then added to 10 mM phosphate buffer (pH 7.5) (581 μl) to obtain a peptide suspension. The resultant peptide suspension (550 μl) and Montanide ISA51 (Seppic) (700 μl) were mixed using a connected glass syringe to prepare an emulsion as an administration solution.
# The administration solution (200 μl) was injected into an HLA-A24 transgenic mouse subcutaneously in the base of the tail. Three mice were used. Seven days after the injection, the spleen was removed and splenocytes were prepared. A portion of the splenocytes was pulsed with the peptide dimer (100 μg/ml) for 1 hour. Splenocytes not pulsed with the peptide were seeded into a 24-well plate at 7×10^6 cells/well and thereto were added the above-mentioned splenocytes pulsed with the peptide (1×10^6 cells/well), and the plate was incubated. The incubation was conducted in RPMI1640 medium supplemented with 10% FCS, 10 mM HEPES, 20 mM L-glutamine, 1 mM sodium pyruvate, 1 mM MEM nonessential amino acids, 1% MEM vitamin and 55 μM 2-mercaptoethanol for 5 days.
# The cultured splenocytes were examined for the cytotoxic activity specific for the peptide used in the administration by ^51Cr release assay (J. Immunol.: 159, 4753, 1997). EL4-A2402/K^b cells obtained by transforming EL-4 cells (ATCC No. TIB-39) in such a manner that a chimera MHC class I molecule of HLA-A24 and H2K^b (Int. J. Cancer: 100, 565, […]) are expressed stably were used as the target cells. The target cells were labeled with ^51Cr (3.7 MBq/10^6 cells) and pulsed with the peptide at 100 μg/ml for an hour. For control, target cells not pulsed with the peptide were labeled with ^51Cr for 2 hours. Those labeled target cells and the previously prepared splenocytes were mixed at a ratio of 1:120, cultured for 4 hours and the CTL activity was evaluated on the basis of the percent of damaged target cells.
substance,measurement,setting,value
"Example 1: Dimer of two H-Cys-Tyr-Thr-Trp-Asn-Gln-Met-Asn-Leu-OH (SEQ ID NO:44) monomers, made by air oxidation, bound through a disulfide bond (chain 1 H-CYTWNQMNL-OH; chain 2 H-CYTWNQMNL-OH; disulfide I:1-II:1; SMILES CSCC[C@H](NC(=O)[C@H](CCC(N)=O)NC(=O)[C@H](CC(N)=O)NC(=O)[C@H](Cc1c[nH]c2ccccc12)NC(=O)[C@@H](NC(=O)[C@H](Cc1ccc(O)cc1)NC(=O)[C@@H](N)CSSC[C@H](N)C(=O)N[C@@H](Cc1ccc(O)cc1)C(=O)N[C@H](C(=O)N[C@@H](Cc1c[nH]c2ccccc12)C(=O)N[C@@H](CC(N)=O)C(=O)N[C@@H](CCC(N)=O)C(=O)N[C@@H](CCSC)C(=O)N[C@@H](CC(N)=O)C(=O)N[C@@H](CC(C)C)C(=O)O)[C@@H](C)O)[C@@H](C)O)C(=O)N[C@@H](CC(N)=O)C(=O)N[C@@H](CC(C)C)C(=O)O)",CTL-inducing activity (induction of peptide-specific CTLs),,CTLs specific for the peptide were induced
same,CTL-inducing activity (induction of peptide-specific CTLs),listed as peptide dimer (SEQ ID NO: 44),induces CTLs
same,cytotoxic activity of splenocytes on target cells not pulsed with the peptide (control),"same splenocytes, target cells not pulsed with the peptide, ratio 1:120, 4 hours",only weak cytotoxicity
same,cytotoxic activity of splenocytes on target cells pulsed with the peptide (percent of damaged target cells),"splenocytes from mice injected s.c. with emulsion (Montanide ISA51), 7 days, target cells pulsed with peptide 100 μg/ml, target:splenocyte ratio 1:120, 4 hours",injured strongly
